This is an account of results in US20040102454A1, “Phenylahistin and the phenylahistin analogs, a new class of anti-tumor compounds” (priority 1998, published 2004).

Data set [1] deals with A-431 human pudendal epithelial squamous cancer cells. Nature of the data set: Cell proliferation inhibiting effect, MTT (Example 5). Type of data set: cell-based. Particulars: A-431, 48-hours incubation. The procedure: (§1) K-562, human chronic myelogenic leukemia cells were cultured in […] culture medium (containing 10% bovine fetus serum) and A-431 human pudendal epithelial squamous cancer cells were cultured in DMEM culture medium, containing 10% bovine fetus serum. To these a continuous dilution series of the (+)-phenylahistin obtained in EXAMPLE 1 was added. After 48-hours incubation, a MTT reagent was added to measure growth.

For data set [2], the system named is K-562, human chronic myelogenic leukemia cells. The data set is described as above. It counts as cell-based. Conditions: K562, K-562, 48-hours incubation. The procedure: as §1
In data set [3] the test system is seven human cancer cell lines. Nature of the data set: Antiproliferative activity, MTT assay, all lines of Table 7. Type of data set: cell-based. How it is done: (§2) In order to examine detailed biological activity, especially antitumor activity of both (+)- and (−)-phenylahistin, resolution of (+)- and (−)-phenylahistin using chiral HPLC was conducted. By repeating chiral separation twice or three times, each enantiomer with an optical purity over 99.8% was obtained, and each enantiomer was recrystallizes from ethanol-hexane mixture.
(§3) Antitumor activity of (+)- and (−)-phenylahistin was examined against seven human cancer cell lines including A431, WiDr, TE-671, Hela, MCF7, A-549 and K562 cells.
A general note: Formazan colour is commonly taken as a measure of viable cells.

For data set [4], the system named is Microtubule protein from bovine brain. Nature of the data set: Microtubule protein polymerization assay (turbidity). Type of data set: biochemical. How it is done:
Microtubule protein was prepared from bovine brain tissue by two cycles of assembly and disassembly according to the method of Tiwari, S. C. et al. Anal. Biochem, (1993), 215, 96-103. Tubulin was purified from microtubule protein by phosphocellulose chromatography see Algaier, J. et al. Biochim. Biophys. Acta, (1988), 954, 235-43, and tubulin purity was evaluated by polyacrylamide gel electrophoresis, as in Laemmli, U.K., Nature, (1970), […], 680-85. […] Protein concentrations were determined using the Coomassie® Protein Assay Reagent from Pierce (Rockford, Ill.).
Polymerization of microtubule protein was monitored by an increase in turbidity at 37° C. in microtubule assembly buffer containing 100 mM MES, 0.5 mM MgCl2, 1 mM EGTA and 1 mM GTP. See Johnson, K. A. et al., J. Mol. Biol., (1977), 117, 1-31. Polymerization of purified tubulin was measured using the same method except the microtubule assembly buffer contained 4 M glycerol. See Lee, J. C. et al., Biochemistry, (1975), 14, 5183-87. Microtubule protein and tubulin polymerization was initiated by a temperature shift from 0° C. to 37° C. and turbidity was measured on a DU-20 thermocontrolled spectrophotometer from Beckman (Fullerton, Calif.) at 360 nm. Drugs were dissolved in dimethyl sulfoxide (DMSO), which was used in all experiments at a final concentration of 2% (v/v).
For this example, the microtubule protein polymerization assay was performed as follows. Microtubule protein was prepared from bovine brain tissue by two cycles of assembly and disassembly. Polymerization of microtubule protein was monitored by an increase in turbidity at 37° C. in microtubule assembly buffer containing 100 mM MES, 0.5 mM MgCl2, 1 mM EGTA and 1 mM GTP. The polymerization of microtubule protein was initiated by a temperature shift from 0° C. to 37° C. Turbidity was measured on a thermo-controlled spectrophotometer (Beckman DU-20, Fullerton, Calif.) at 360 nm. Compounds were dissolved in DMSO, which was used in all experiments at a final concentration of 2% (v/v).

The test system of data set [5] is P388 cells. Briefly: P388 proliferation, Alamar Blue assay. Type of data set: cell-based, murine. Particulars: Mus musculus, P388. The procedure:
For this example, the Alamar Blue™ assay was performed as follows. Exponentially growing P388 cells were seeded into 96-well tissue culture plates (5×10^3 cells/100 μl/well) and cultured in RPMI 1640 medium supplemented with 10% fetal bovine serum for 16 h. Compounds (DMSO solution) were then added to each well at various concentrations, and the cells were cultured for an additional 48 h. Living cells were counted using Alamar Blue™ (BioSource International, Camarillo, Calif.), according to the method of Ahmed, S. A. et al., J. Immunol. Methods, 170, 211 (1994).
For orientation: The colour change of resazurin is a common sign of viable cells or microbes.

For a further data set, the system named is MCF7 (breast). Nature of the data set: Antiproliferative activity, MTT assay (Table 7). Type of data set: cell-based. Particulars: Homo sapiens, optical purity over 99.8%. The procedure: as §2, §3
The next data set deals with WiDr (colon). Nature of the data set: Antiproliferative activity, MTT assay (Table 7). It counts as cell-based. Particulars: Homo sapiens, optical purity over 99.8%. The procedure: as §2, §3
The subject of a further data set is K562 (leukemia). Briefly: Antiproliferative activity, MTT assay (Table 7). It counts as cell-based. Conditions: Homo sapiens, optical purity over 99.8%. The procedure:
as §2, §3

Another data set concerns TE-671 (CNS). Nature of the data set: Antiproliferative activity, MTT assay (Table 7). Type of data set: cell-based. Particulars: Homo sapiens, TE-671, TE-671 (CNS), optical purity over 99.8%. How it is done: as §2, §3
A further data set relates to A549 (lung). Briefly: Antiproliferative activity, MTT assay (Table 7). It counts as cell-based. Particulars: Homo sapiens, optical purity over 99.8%. How it is done: as §2, §3
In the next data set the test system is Hela (ovary). Nature of the data set: Antiproliferative activity, MTT assay (Table 7). It counts as cell-based. Conditions: Homo sapiens, optical purity over 99.8%. The procedure:
as §2, §3

Another data set concerns A-431 (damal). Nature of the data set: Antiproliferative activity, MTT assay (Table 7). Type of data set: cell-based. Conditions: Homo sapiens, optical purity over 99.8%. How it is done:
as §2, §3

Data set [6] concerns P388 cells. Nature of the data set: Cell cycle progression of P388, flow cytometer. Type of data set: cell-based, murine. Conditions: 1×10^−5 M, 8-hour incubation; 97.8% e.e. How it is done:
The effect of phenylahistin on the cell cycle progression of P388 cells was also investigated using a flow cytometer, as described in Krishan, A., J. Cell Biol. (1975) 66, 188-193. P388 cells in the log growth phase were seeded into flasks and cultured for 14 hours, and then various concentrations of phenylahistin were added to each flask. After an 8-hour incubation, the cells were harvested and fixed with 50% MeOH at −20° C. overnight. The cells were washed with 30% MeOH and then with 10 mM PBS, and treated with 50 :g/ml propidium iodide at 4° C. for 2 hours. DNA histograms were obtained using a flow cytometer (Cyto ACE-300:JASCO).
A general note: Flow cytometry measures light scatter and fluorescence of single cells or particles in a stream.

Data set [7] deals with P388 murine leukemia cells. Briefly: Cytotoxic effects of the phenylahistin enantiomers (Example 8). It counts as cell-based. Particulars: Mus musculus, (−) 92.2% e.e., (+) 97.8% e.e. An excerpt: The cytotoxic effects of the enantiomers of phenylahistin on P388 murine leukemia cells were examined. […] Judging from the content of (−)-phenylahistin in (+)-phenylahistin, (+)-phenylahistin was considered to have relatively low cytotoxicity to P388 cells.

Data set [8] deals with MES-SA DX (Taxol Resistant) human uterine sarcoma tumor cell line. Nature of the data set: Drug resistant cell line pair, cytotoxicity. It counts as cell-based. An excerpt:
MES-SA (Taxol Sensitive) and MES-SA DX (Taxol Resistant). This cell line expresses elevated mdr-1 mRNA and P-glycoprotein (an extrusion pump mechanism). Pretreatment with cyclosporin-A (CsA) blocks P-glycoprotein and reinstates activity in the resistant cell line for those compounds for which the resistance is due to elevated P-glycoprotein.

In data set [9] the test system is Jurkat cells.
The subject of data set [10] is Jurkat cells. Briefly: Cytotoxicity in Jurkat cells. Particulars: Homo sapiens, read-out: Cytotoxicity Potency IC50.
The test system of data set [11] is HL-60/MX-2 (Mitoxantrone-Resistant) human acute promyelocytic leukemia cell line. Nature of the data set: Drug resistant cell line pair, cytotoxicity. Type of data set: cell-based. The text has this: HL-60 (Mitoxantrone-Sensitive) and HL-60/MX-2 (Mitoxantrone-Resistant) This cell line is considered to have atypical drug resistance properties with altered topoisomerase II catalytic activity without overexpression of P-glycoprotein.

Data set [12] relates to HL-60 (Mitoxantrone-Sensitive) human acute promyelocytic leukemia cell line. Nature of the data set: Drug resistant cell line pair, cytotoxicity. It counts as cell-based. Conditions: Homo sapiens; HL-60 Sensitive. An excerpt: 2) Human Acute Promyelocytic Leukemia Cell Line Pair: HL-60 (Mitoxantrone-Sensitive) and HL-60/MX-2 (Mitoxantrone-Resistant)
This cell line is considered to have atypical drug resistance properties with altered topoisomerase II catalytic activity without overexpression of P-glycoprotein.

The structures appear in SMILES notation. In brackets after ≈: the same amount, converted by molar mass. Several values for one entry are separate records, joined by “and”; a condition that tells them apart may be missing. Equal entries are not always repeated. Where two headings read alike, the source gives them in different places. A value given as a limit tells only on which side of the number the result lay.

Take `C=CC(C)(C)c1[nH]cnc1/C=C1\NC(=O)[C@@H](Cc2ccccc2)NC1=O` [(+)-phenylahistin]: the IC50 in [1] is 2.9 µg/mL (≈ 8.28 µM); in data set [2], 13.3 µg/mL (≈ 38 µM); in data set [4] (microtubule protein 1.5 mg/mL (Table 9), read-out: IC50 Microtubule Protein polymerization), greater than 200 µM; in [4] (microtubule protein 1.5 mg/ml (Table 4), read-out: IC50 for Microtubule Protein Polymerization) it was greater than 200 µM; with P388 cells [5] (Alamar Blue assay (Table 4), read-out: IC50 for P388 Proliferation), 10 µM; with P388 cells [5] (means (±SEM) of three experiments (Table 9), read-out: IC50 P388 proliferation) it was 10 µM. Further, the IC50 amounted to 11 µM in the data set with MCF7 (breast); 8.5 µM in the data set on WiDr (colon); 10 µM with K562 (leukemia); 130 µM with TE-671 (CNS); 30 µM in the data set with A549 (lung); 10 µM in the data set with Hela (ovary). The IC50 in the data set on A-431 (damal) was 20 µM; in data set [7], 38 µM. The “fold less activity than (−)-PLH” value in data set [3] is given as 33 to 100 fold. For the same molecule, the “inhibition percentage at 200 μM, microtubule protein polymerization” value in [4] (200 μM) came to 15%. In [4] (concentrations up to 200 μM), the microtubule assembly result was “did not affect microtubule assembly”. Further, the “cell cycle inhibitory activity (G2/M)” value in the data set with P388 cells [6] is recorded as “no effect”.
For the molecule `O=C1c2c(O)ccc(O)c2C(=O)c2c(NCCNCCO)ccc(NCCNCCO)c21` [Mitoxantrone, reference compound], the “reduced susceptibility of the MES-SA DX cell line” value in data set [8] came to 20 fold. In the data set with Jurkat cells [9], the “Cytotoxicity Efficacy % Cell Death” value worked out at 99%. Also, the IC50 with Jurkat cells [10] stood at 0.041 µM; in [11] (Homo sapiens, HL60/MX2, HL-60 Resistant), 4.87 µM; in [12], 0.202 µM. In addition, in data set [11] (HL-60 Resistant versus Sensitive), the “Ratio to Sensitive” value is 24 and 24.1.
